Data set [1] concerns primary MLL-AF9 AML cells. The data set is described as follows: MLL-AF9 AML secondary BMT recipient mouse model. The class given is in vivo. The note with it: MLL-AF9 AML mice; nanoparticles 0.5 mg/kg i.v., JQ1 50 mg/kg i.p., every other day; PBS control 54 days.
Procedure: The same MLL-AF9 AML mouse model was employed. […] All the P values were detected by log-rank test.
After the onset of secondary AML, the recipient mice were treated with PBS control, 0.5 mg/kg G7-NH2-miR-150, or G7-Flt3L-miR-150, i.v., every other day, until the PBS-treated control group all died of leukemia.
For the JQ1 and nanoparticle combination treatment experiment, after the onset of AML, the recipient mice were treated with PBS control, or 50 mg/kg JQ1, i.p., alone, or together with 0.5 mg/kg G7-NH2-miR-150, or G7-Flt3L-miR-150, i.v., every other day, until the PBS-treated control group all died of leukemia.
The in vivo therapeutic effects of the miR-150 nanoparticles were also investigated in a MLL-rearranged leukemic mouse model.
A short description of data set [2]: Blood cell counts of normal mice after nanoparticle/drug administration (effects on normal hematopoiesis).
Procedure: FIG. 12 provides an analysis of the potential influence of the nanoparticles on hematopoietic system in normal mice, C57BL/6 wild type mice were treated with 0.5 mg/kg PBS (Control/Ctrl), G7-NH2, G7-Flt3L, G7-NH2-miR-150 or G7-Flt3L-miR-150, i.v., every other day, for ten times. Mice were sacrificed 12 weeks after the last administration, subsequent Wright-Giemsa stained PB and BM, and H&E stained spleen and liver of the animals are shown.
[3] abbreviates: normal C57BL/6 mice, 50 mg/kg JQ1 and/or 0.5 mg/kg nanoparticles, i.v., every day for 15 days, 4 weeks after the last administration.

Molecules are shown by their SMILES.

Regarding `Cc1sc2c(c1C)C(c1ccc(Cl)cc1)=N[C@@H](CC(=O)OC(C)(C)C)c1nnc(C)n1-2` [JQ1], the median survival in data set [1] came out at 69.5 days. For the same compound, in data set [2] (setting [3]), the BA was determined as 0.01 ± 0.0 K/μl, the EO was determined as 0.04 ± 0.04 K/μl, the LY was 5.57 ± 0.83 K/μl and the MO came to 0.36 ± 0.32 K/μl. In data set [2] (setting [3]), the NE came out at 1.2 ± 0.62 K/μl, the PLT was 688 ± 110.3 K/μl, the RBC was found to be 8.12 ± 1.13 M/μl and the WBC stood at 7.18 ± 0.76 K/μl. Besides, the “noticeable (side) effects on normal hematopoiesis” value in data set [2] (normal mice in vivo) is “did not cause any noticeable side effects”.

Source of the values: US11951178B2, “Methods for treating subjects suffering from acute myeloid leukemia with FLT3 ligand-targeted miR-150 nanoparticles” (University of Cincinnati, priority 2016, dated 2024).
